PubChem BioAssay AID248 (DTP/NCI, 2004)
Several values for one entry are separate records, joined by “and”; a condition that tells them apart may be missing. Equal values may be shown once. Inconclusive results and toxic doses are left out. Rule as the data show it: active = T/C of 150% or more; inactive = T/C below 125%.

System: L1210 leukemia ip in BDF1 mice, survival T/C
Test: NCI In Vivo Anticancer Drug Screen. Data for tumor model L1210 Leukemia (intraperitoneal) in B6D2F1 (BDF1) mice
Details: endpoint: mean survival time, higher = longer survival
In short: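 Tumor cells were implanted, animals were treated, and survival was followed. The result divides the treated measurement by the vehicle-control measurement.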

[1] = dose: 100.0 mg/kg/injection, schedule: Q01DX001 (ip), vehicle: carboxymethylcellulose (CMC)
[2] = dose: 200.0 mg/kg/injection, schedule: Q01DX001 (ip), vehicle: carboxymethylcellulose (CMC)
[3] = dose: 100.0 mg/kg/injection, schedule: Q04DX002 (ip), vehicle: saline with Tween-80
[4] = dose: 200.0 mg/kg/injection, schedule: Q04DX002 (ip), vehicle: saline with Tween-80
[5] = dose: 400.0 mg/kg/injection, schedule: Q04DX002 (ip), vehicle: saline with Tween-80
[6] = dose: 100.0 mg/kg/injection, schedule: Q04DX003 (ip), vehicle: Klucel (hydroxypropylcellulose) (HPC)
[7] = dose: 200.0 mg/kg/injection, schedule: Q04DX003 (ip), vehicle: Klucel (hydroxypropylcellulose) (HPC)
[8] = dose: 400.0 mg/kg/injection, schedule: Q04DX003 (ip), vehicle: Klucel (hydroxypropylcellulose) (HPC)
[9] = dose: 100.0 mg/kg/injection, schedule: Q01DX009 (ip), vehicle: saline with Tween-80
[10] = dose: 100.0 mg/kg/injection, schedule: Q01DX001 (ip), vehicle: saline
[11] = dose: 200.0 mg/kg/injection, schedule: Q01DX001 (ip), vehicle: saline
[12] = dose: 400.0 mg/kg/injection, schedule: Q01DX001 (ip), vehicle: saline
[13] = dose: 100.0 mg/kg/injection, schedule: Q04DX002 (ip), vehicle: Klucel (hydroxypropylcellulose) (HPC)
[14] = dose: 200.0 mg/kg/injection, schedule: Q04DX002 (ip), vehicle: Klucel (hydroxypropylcellulose) (HPC)
[15] = dose: 400.0 mg/kg/injection, schedule: Q04DX002 (ip), vehicle: Klucel (hydroxypropylcellulose) (HPC)
[16] = dose: 25.0 mg/kg/injection, schedule: Q04DX002 (ip), vehicle: Klucel (hydroxypropylcellulose) (HPC)
[17] = dose: 50.0 mg/kg/injection, schedule: Q04DX002 (ip), vehicle: Klucel (hydroxypropylcellulose) (HPC)
[18] = dose: 100.0 mg/kg/injection, schedule: Q01DX009 (ip), vehicle: Klucel (hydroxypropylcellulose) (HPC)
[19] = dose: 200.0 mg/kg/injection, schedule: Q01DX009 (ip), vehicle: Klucel (hydroxypropylcellulose) (HPC)
[20] = dose: 400.0 mg/kg/injection, schedule: Q01DX009 (ip), vehicle: Klucel (hydroxypropylcellulose) (HPC)

Measured: T/C

CC(=O)Nc1cccc(C[P+](c2ccccc2)(c2ccccc2)c2ccccc2)c1
inactive: dose: 5.0 mg/kg/injection, schedule: Q01DX001 (ip), vehicle: carboxymethylcellulose (CMC) 95 % of control | dose: 10.0 mg/kg/injection, schedule: Q01DX001 (ip), vehicle: carboxymethylcellulose (CMC) 98 % of control | dose: 20.0 mg/kg/injection, schedule: Q01DX001 (ip), vehicle: carboxymethylcellulose (CMC) 95 % of control | dose: 40.0 mg/kg/injection, schedule: Q01DX001 (ip), vehicle: carboxymethylcellulose (CMC) 95 % of control | dose: 80.0 mg/kg/injection, schedule: Q01DX001 (ip), vehicle: carboxymethylcellulose (CMC) 93 % of control | [1] 97 % of control | [2] 90 % of control

CC(C)(C)NC#SNC(C)(C)C
inactive: [3] 100 % of control | [4] 92 % of control | [5] 92 % of control

C/C=C\c1ccc(OC(=O)Nc2ccc(Cl)cc2)c(OC)c1
inactive: [3] 100 % of control | [4] 100 % of control | [5] 96 % of control

CCOC(=O)C/C(=N\Nc1ccc([N+](=O)[O-])cc1[N+](=O)[O-])c1ccccc1
inactive: dose: 100.0 mg/kg/injection, schedule: Q04DX003 (ip), vehicle: saline sonified 96 % of control | dose: 200.0 mg/kg/injection, schedule: Q04DX003 (ip), vehicle: saline sonified 96 % of control | dose: 400.0 mg/kg/injection, schedule: Q04DX003 (ip), vehicle: saline sonified 91 % of control

O=C(C1CC=CCC1)N1CCCC1 (stereo unspecified)
inactive: dose: 100.0 mg/kg/injection, schedule: Q04DX002 (ip), vehicle: saline 101 % of control | dose: 200.0 mg/kg/injection, schedule: Q04DX002 (ip), vehicle: saline 104 % of control | dose: 400.0 mg/kg/injection, schedule: Q04DX002 (ip), vehicle: saline 104 % of control

COCBr
inactive: dose: 100.0 mg/kg/injection, schedule: Q01DX009 (ip), vehicle: saline 110 % of control | dose: 100.0 mg/kg/injection, schedule: Q04DX003 (ip), vehicle: saline 103 % of control | dose: 200.0 mg/kg/injection, schedule: Q01DX009 (ip), vehicle: saline 101 % of control | dose: 200.0 mg/kg/injection, schedule: Q04DX003 (ip), vehicle: saline 103 % of control | dose: 400.0 mg/kg/injection, schedule: Q04DX003 (ip), vehicle: saline 94 % of control

COc1ccc(OC)c(NC(=O)Nc2ccc(N(C)C(C)=O)cc2)c1
inactive: [6] 90 % of control | [7] 87 % of control | [8] 88 % of control

CCOC(=O)CNC(=O)OCCOc1ccccc1Cl
inactive: [9] 94 % of control | dose: 200.0 mg/kg/injection, schedule: Q01DX009 (ip), vehicle: saline with Tween-80 98 % of control | dose: 400.0 mg/kg/injection, schedule: Q01DX009 (ip), vehicle: saline with Tween-80 100 % of control

O=C1COc2ccccc21
inactive: dose: 50.0 mg/kg/injection, schedule: Q01DX001 (ip), vehicle: saline 97 % of control | [10] 100 % of control | [11] 100 % of control | [12] 100 % of control

C#CC(C)ON1C(=O)c2ccccc2C1=O (stereo unspecified)
inactive: dose: 100.0 mg/kg/injection, schedule: Q01DX009 (ip), vehicle: saline sonified 96 % of control | dose: 100.0 mg/kg/injection, schedule: Q04DX003 (ip), vehicle: saline with Tween-80 115 % of control | dose: 200.0 mg/kg/injection, schedule: Q01DX009 (ip), vehicle: saline sonified 97 % of control | dose: 200.0 mg/kg/injection, schedule: Q04DX003 (ip), vehicle: saline with Tween-80 114 % of control | dose: 400.0 mg/kg/injection, schedule: Q01DX009 (ip), vehicle: saline sonified 104 % of control | dose: 400.0 mg/kg/injection, schedule: Q04DX003 (ip), vehicle: saline with Tween-80 109 % of control

Nc1ccc2c(c1)C(=O)c1c(C(=O)O)cccc1-2
inactive: dose: 75.0 mg/kg/injection, schedule: Q01DX001 (ip), vehicle: carboxymethylcellulose (CMC) 108 % of control | dose: 150.0 mg/kg/injection, schedule: Q01DX001 (ip), vehicle: carboxymethylcellulose (CMC) 101 % of control

NC(=O)N/N=C/c1ccc([N+](=O)[O-])cc1
inactive: [13] 96 % of control | [14] 110 % of control | [15] 107 % of control

CCCCCCCCCCCCOP(=S)(S)OCCCCCCCCCCCC (tested in a mixture with another compound)
inactive: dose: 25.0 mg/kg/injection, schedule: Q01DX009 (ip), vehicle: Klucel (hydroxypropylcellulose) (HPC) 94 % of control | [16] 87 % of control | dose: 50.0 mg/kg/injection, schedule: Q01DX009 (ip), vehicle: Klucel (hydroxypropylcellulose) (HPC) 91 % of control | [17] 90 % of control | [13] 99 % of control and 100 % of control

O=C(CC1NCCCC1O)Cn1cnc2cc3c(cc2c1=O)OCO3 (stereo unspecified)
inactive: dose: 5.0 mg/kg/injection, schedule: Q01DX009 (ip), vehicle: saline 117 % of control | dose: 5.0 mg/kg/injection, schedule: Q04DX003 (ip), vehicle: saline 105 % of control | dose: 10.0 mg/kg/injection, schedule: Q01DX009 (ip), vehicle: saline 122 % of control | dose: 10.0 mg/kg/injection, schedule: Q04DX003 (ip), vehicle: saline 105 % of control | dose: 20.0 mg/kg/injection, schedule: Q01DX009 (ip), vehicle: saline 95 % of control | dose: 20.0 mg/kg/injection, schedule: Q04DX003 (ip), vehicle: saline 117 % of control

N#C/C(=C\c1ccc(Cl)cc1)c1ccccc1
inactive: dose: 100.0 mg/kg/injection, schedule: Q04DX003 (ip), vehicle: gum acacia 100 % of control | dose: 200.0 mg/kg/injection, schedule: Q04DX003 (ip), vehicle: gum acacia 102 % of control | dose: 400.0 mg/kg/injection, schedule: Q04DX003 (ip), vehicle: gum acacia 109 % of control

CCC1(CCCCCl)OCCO1
inactive: [18] 103 % of control | [19] 97 % of control | [20] 103 % of control

S=P1(c2ccccc2)Nc2ccccc2N1c1ccccc1 (stereo unspecified)
inactive: dose: 100.0 mg/kg/injection, schedule: Q04DX002 (ip), vehicle: DMSO 114 % of control | dose: 200.0 mg/kg/injection, schedule: Q04DX002 (ip), vehicle: DMSO 86 % of control

COc1ccc(Cc2c3cc(OC)c(OC)cc3cc[n+]2[O-])cc1OC
inactive: [10] 91 % of control | [11] 96 % of control | [12] 96 % of control

CC(=O)Oc1c2c(c(OC(C)=O)c3c1C(=O)c1ccccc1C3=O)CCCC2
inactive: [10] 98 % of control | [11] 92 % of control | [12] 98 % of control

O=C(Nc1ccc(S(=O)(=O)c2ccc(NC(=O)C(F)(F)Cl)cc2)cc1)C(F)(F)Cl
inactive: [1] 104 % of control | [2] 101 % of control | dose: 400.0 mg/kg/injection, schedule: Q01DX001 (ip), vehicle: carboxymethylcellulose (CMC) 103 % of control

CC(C)(C)c1ccc(C(=O)C2CC2)cc1
inactive: dose: 50.0 mg/kg/injection, schedule: Q01DX009 (ip), vehicle: saline with Tween-80 90 % of control | [9] 92 % of control

COc1ccc(OC)c2c(C(C)=O)c[nH]c12
inactive: dose: 12.5 mg/kg/injection, schedule: Q04DX002 (ip), vehicle: Klucel (hydroxypropylcellulose) (HPC) 118 % of control | [16] 112 % of control | [17] 93 % of control

C=C(C)COc1ccc(C(=O)c2ccccc2)cc1
inactive: [13] 103 % of control | [14] 100 % of control | [15] 94 % of control

CC(C)(C)C1(O)CCCCC1
inactive: [18] 99 % of control | [6] 98 % of control | [19] 92 % of control | [7] 100 % of control | [20] 92 % of control | [8] 98 % of control

O=C1NC(c2c(Cl)cccc2Cl)Nc2ccccc21 (stereo unspecified)
inactive: [6] 100 % of control | [7] 100 % of control | [8] 111 % of control

Cc1cccc(Cl)c1NC(=O)Nc1ccc(S(N)(=O)=O)cc1
inactive: [18] 94 % of control | [19] 102 % of control | [20] 92 % of control

CCCCC(CCCC)(C(=O)OCCOCCCl)c1cccc2ccccc12
inactive: [3] 101 % of control | [4] 95 % of control | [5] 99 % of control
